Assay [1] concerns the target T1, Nitric oxide synthase, inducible (Mus musculus, UniProt P29477).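 Note: inhibition of iNOS enzyme activity measured with L-arginine as substrate; in other assays of this panel Not Active means under 50% inhibition at 10 µM.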
T1 sequence (P29477 whole entry): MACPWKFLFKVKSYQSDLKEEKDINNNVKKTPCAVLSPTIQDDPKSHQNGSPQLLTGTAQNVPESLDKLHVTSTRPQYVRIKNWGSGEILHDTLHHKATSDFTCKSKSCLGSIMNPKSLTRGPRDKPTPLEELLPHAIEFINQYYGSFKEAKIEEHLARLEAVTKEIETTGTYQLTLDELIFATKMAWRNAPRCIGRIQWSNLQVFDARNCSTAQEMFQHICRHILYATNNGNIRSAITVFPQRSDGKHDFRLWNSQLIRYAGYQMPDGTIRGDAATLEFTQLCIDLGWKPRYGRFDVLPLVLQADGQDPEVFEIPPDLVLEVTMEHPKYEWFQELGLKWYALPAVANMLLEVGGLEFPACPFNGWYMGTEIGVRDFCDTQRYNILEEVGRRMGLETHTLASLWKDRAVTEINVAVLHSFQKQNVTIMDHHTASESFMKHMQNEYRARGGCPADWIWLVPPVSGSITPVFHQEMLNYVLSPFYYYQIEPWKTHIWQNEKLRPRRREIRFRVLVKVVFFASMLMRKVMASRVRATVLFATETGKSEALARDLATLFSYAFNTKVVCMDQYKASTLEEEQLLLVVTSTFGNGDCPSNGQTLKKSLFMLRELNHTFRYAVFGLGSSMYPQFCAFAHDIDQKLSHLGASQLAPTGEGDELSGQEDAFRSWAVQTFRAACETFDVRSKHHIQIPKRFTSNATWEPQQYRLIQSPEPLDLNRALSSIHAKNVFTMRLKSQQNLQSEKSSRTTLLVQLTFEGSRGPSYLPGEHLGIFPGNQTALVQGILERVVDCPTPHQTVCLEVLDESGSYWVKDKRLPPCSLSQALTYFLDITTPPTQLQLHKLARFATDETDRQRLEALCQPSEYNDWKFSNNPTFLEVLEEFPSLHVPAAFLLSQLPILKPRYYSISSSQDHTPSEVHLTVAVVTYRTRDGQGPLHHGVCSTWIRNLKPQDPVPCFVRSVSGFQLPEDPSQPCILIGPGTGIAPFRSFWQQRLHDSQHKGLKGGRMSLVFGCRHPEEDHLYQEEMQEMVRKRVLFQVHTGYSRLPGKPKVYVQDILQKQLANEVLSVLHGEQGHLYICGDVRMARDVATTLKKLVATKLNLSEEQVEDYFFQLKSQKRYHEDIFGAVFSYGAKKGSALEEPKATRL
On the set-up: species or system Escherichia coli.

Assay [2] can be described thus: DRUGMATRIX: ATPase, Na+/K+ enzyme inhibition (substrate: ATP). In kind it is tissue-based, Sus scrofa, Heart. Conditions: Not Active = under 50% inhibition at 10 µM.
For assay [3], the target named is T2, Neuropeptide Y receptor type 1 (Homo sapiens, UniProt P25929). Note: in other assays of this panel Not Active means under 50% inhibition at 10 µM.
T2 sequence (P25929 whole entry): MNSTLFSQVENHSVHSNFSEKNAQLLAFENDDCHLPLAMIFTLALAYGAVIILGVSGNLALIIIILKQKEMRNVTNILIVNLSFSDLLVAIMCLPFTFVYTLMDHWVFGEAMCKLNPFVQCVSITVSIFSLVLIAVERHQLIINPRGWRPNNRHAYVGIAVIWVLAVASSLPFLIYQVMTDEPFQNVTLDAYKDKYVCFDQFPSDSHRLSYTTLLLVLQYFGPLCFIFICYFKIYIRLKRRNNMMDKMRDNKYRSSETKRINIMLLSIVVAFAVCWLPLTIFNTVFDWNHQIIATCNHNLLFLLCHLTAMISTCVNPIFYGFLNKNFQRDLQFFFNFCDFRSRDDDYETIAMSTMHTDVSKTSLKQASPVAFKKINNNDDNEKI
It is filed as cell membranes, Membrane. The conditions noted are these: sk-n-mc.

Assay [4] concerns the target Mitogen-activated protein kinase 14 (Homo sapiens, UniProt Q16539). More on the design: species or system Escherichia coli.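 Note: inhibition of p38alpha enzyme activity in a biochemical kinase assay, with myelin basic protein serving as substrate; in other assays of this panel Not Active means under 50% inhibition at 10 µM.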
The target in assay [5] is Histamine H2 receptor (Homo sapiens, UniProt P25021). In kind it is cell membranes, CHO-K1, Membrane. The conditions noted are these: for Ki: read-out: Ki. For all read-outs here: in other assays of this panel Not Active means under 50% inhibition at 10 µM.
Sequence of Histamine H2 receptor (P25021 whole entry): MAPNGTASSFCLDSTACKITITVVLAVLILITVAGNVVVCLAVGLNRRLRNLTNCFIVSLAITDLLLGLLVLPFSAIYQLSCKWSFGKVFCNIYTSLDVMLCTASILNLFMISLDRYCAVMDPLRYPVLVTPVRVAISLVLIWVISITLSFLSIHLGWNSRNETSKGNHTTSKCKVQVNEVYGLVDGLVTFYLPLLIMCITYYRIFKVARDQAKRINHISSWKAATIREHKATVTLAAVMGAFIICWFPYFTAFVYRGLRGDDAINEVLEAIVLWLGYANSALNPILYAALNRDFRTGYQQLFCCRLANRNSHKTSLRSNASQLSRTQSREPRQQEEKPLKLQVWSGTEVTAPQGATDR
The target in assay [6] is T3, Receptor-type tyrosine-protein phosphatase C (Homo sapiens, UniProt P08575).
T3 sequence (P08575 whole entry): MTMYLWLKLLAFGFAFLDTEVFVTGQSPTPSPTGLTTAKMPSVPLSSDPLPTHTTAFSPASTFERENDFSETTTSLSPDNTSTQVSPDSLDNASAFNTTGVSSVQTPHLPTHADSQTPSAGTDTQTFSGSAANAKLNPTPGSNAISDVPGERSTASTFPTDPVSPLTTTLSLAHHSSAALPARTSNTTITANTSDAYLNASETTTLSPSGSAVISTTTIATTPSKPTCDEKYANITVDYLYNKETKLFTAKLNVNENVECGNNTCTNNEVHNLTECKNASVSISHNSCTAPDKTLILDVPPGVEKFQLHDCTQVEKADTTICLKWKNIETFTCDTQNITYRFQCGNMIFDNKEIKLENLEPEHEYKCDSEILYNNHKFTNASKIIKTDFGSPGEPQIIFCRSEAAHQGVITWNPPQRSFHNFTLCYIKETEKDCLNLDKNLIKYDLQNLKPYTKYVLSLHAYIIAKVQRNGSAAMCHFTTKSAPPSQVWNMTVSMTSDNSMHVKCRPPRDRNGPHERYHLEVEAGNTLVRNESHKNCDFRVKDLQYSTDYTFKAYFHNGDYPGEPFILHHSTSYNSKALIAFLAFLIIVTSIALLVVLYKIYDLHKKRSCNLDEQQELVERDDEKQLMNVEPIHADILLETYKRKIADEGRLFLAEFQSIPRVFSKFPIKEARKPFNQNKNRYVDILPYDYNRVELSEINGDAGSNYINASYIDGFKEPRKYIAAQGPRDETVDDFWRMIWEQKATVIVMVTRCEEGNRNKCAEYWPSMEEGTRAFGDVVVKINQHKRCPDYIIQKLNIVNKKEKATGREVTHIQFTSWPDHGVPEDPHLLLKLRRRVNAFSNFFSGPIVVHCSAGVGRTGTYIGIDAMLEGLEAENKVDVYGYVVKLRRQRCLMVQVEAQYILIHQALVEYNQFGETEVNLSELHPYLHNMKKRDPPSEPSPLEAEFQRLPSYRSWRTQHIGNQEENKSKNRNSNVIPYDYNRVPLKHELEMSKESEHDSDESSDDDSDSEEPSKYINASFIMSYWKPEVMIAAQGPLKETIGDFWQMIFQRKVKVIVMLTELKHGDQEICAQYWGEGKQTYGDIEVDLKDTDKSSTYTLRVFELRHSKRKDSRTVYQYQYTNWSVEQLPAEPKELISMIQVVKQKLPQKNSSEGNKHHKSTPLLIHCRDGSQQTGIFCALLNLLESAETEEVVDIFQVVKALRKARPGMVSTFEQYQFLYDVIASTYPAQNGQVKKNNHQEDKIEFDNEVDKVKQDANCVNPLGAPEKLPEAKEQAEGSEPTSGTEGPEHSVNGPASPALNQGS
More on the design: species or system Escherichia coli.

Among the data in ChEMBL document CHEMBL1909046, “DrugMatrix in vitro pharmacology data” are IC50 and Ki values, retold here.

For orientation: IC50 means the point on the concentration scale where inhibition reaches its midpoint. By Ki is commonly meant the dissociation constant of the complex between target and ligand, obtained from inhibition or displacement.

Sequence of Mitogen-activated protein kinase 14 (Q16539 whole entry): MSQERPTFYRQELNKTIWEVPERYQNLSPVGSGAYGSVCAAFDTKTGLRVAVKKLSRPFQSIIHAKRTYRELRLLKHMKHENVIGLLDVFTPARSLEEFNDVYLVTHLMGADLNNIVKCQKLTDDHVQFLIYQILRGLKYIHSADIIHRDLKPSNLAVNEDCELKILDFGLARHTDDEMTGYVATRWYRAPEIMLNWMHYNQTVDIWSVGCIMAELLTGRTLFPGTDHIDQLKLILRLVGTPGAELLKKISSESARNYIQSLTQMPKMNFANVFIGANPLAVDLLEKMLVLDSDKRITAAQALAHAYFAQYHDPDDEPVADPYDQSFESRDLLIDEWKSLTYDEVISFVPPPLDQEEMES

Consider `C#C[C@]1(O)CC[C@H]2[C@@H]3[C@H](C)CC4=C(CCC(=O)C4)[C@H]3CC[C@@]21C` [TIBOLONE], for which the IC50 entry in assay [1], in assay [2], in assay [3], in assay [4], in assay [5] (cho-k1) and in assay [6] was “Not Active” in each case. Besides, in assay [2], the Ki entry is recorded as “Not Active”.

Take `C[C@]12CCC(=O)C[C@@H]1CC[C@@H]1[C@@H]2CC[C@]2(C)[C@@H](O)CC[C@@H]12` [STANOLONE]: the 50% inhibitory concentration (IC50) result in assay [1], in assay [2], in assay [3], in assay [4], in assay [5] (cho-k1) and in assay [6] was “Not Active” throughout. Moreover, the Ki entry in assay [2] was “Not Active”.

Take `CC(C)(C)NC[C@H](O)COc1cccc2c1CCCC2=O` [LEVOBUNOLOL]: the IC50 result in assay [1], in assay [2], in assay [3], in assay [4], in assay [5] (cho-k1) and in assay [6] was “Not Active” throughout. Moreover, the inhibition constant Ki entry in assay [2] is on record as “Not Active”.

With `CCN1CCCC1CNC(=O)c1cc(S(N)(=O)=O)ccc1OC` (stereo not given) [SULPIRIDE], the concentration for half-maximal inhibition (IC50) entry in assay [1], in assay [2], in assay [3], in assay [4], in assay [5] (cho-k1) and in assay [6] was “Not Active” throughout. Moreover, the Ki result in assay [2] was “Not Active”.

As for `CCN(CC)C(=S)SSC(=S)N(CC)CC`, the IC50 entry in assay [1], in assay [2], in assay [3], in assay [4], in assay [5] (cho-k1) and in assay [6] was “Not Active” each time. Further, the Ki result in assay [2] is reported as “Not Active”.

As for `OC[C@@H](O)[C@@H](O)[C@H](O)[C@H](O)CO` [MANNITOL], the half-inhibitory concentration (IC50) entry in assay [1], in assay [2], in assay [3], in assay [4], in assay [5] (cho-k1) and in assay [6] was “Not Active” throughout. For the same compound, the Ki entry in assay [2] is “Not Active”.

For the compound `C[N+]1(C)[C@@H]2C[C@@H](OC(=O)[C@H](CO)c3ccccc3)C[C@H]1[C@@H]1O[C@@H]12.[Br-]` [METHSCOPOLAMINE BROMIDE], the IC50 entry in assay [1], in assay [2], in assay [3], in assay [4], in assay [5] (cho-k1) and in assay [6] was “Not Active” throughout. Also, the Ki entry in assay [2] is listed as “Not Active”.

In the case of `CCN(CC)CCNC(=O)c1cc(Cl)c(N)cc1OC` [METOCLOPRAMIDE], the IC50 result in assay [1], in assay [2], in assay [3], in assay [4], in assay [5] (cho-k1) and in assay [6] was “Not Active” each time. Moreover, in assay [2], the Ki result was “Not Active”.

As to `CC(=O)O[C@]1(C(C)=O)CC[C@H]2[C@@H]3C[C@H](C)C4=CC(=O)CC[C@]4(C)[C@H]3CC[C@@]21C` [MEDROXYPROGESTERONE ACETATE], the 50% inhibitory concentration (IC50) entry is “Not Active” in assay [1]; “Not Active” in assay [2]; “Not Active” in assay [3]; “Not Active” in assay [4]; 27.9 µM in assay [5] (read-out: IC50); “Not Active” in assay [6]. The inhibition constant Ki entry in assay [2] was “Not Active”; in assay [5], 27.5 µM.

As to `Cc1ccnc(NS(=O)(=O)c2ccc(N)cc2)n1` [SULFAMERAZINE], the IC50 result in assay [1], in assay [2], in assay [3], in assay [4], in assay [5] (cho-k1) and in assay [6] was “Not Active” in each case. For the same compound, the Ki result in assay [2] is reported as “Not Active”.

As for `O=C(c1ccccc1)c1ccc2n1CCC2C(=O)O` (stereo not given) [KETOROLAC], the IC50 result in assay [1], in assay [2], in assay [3], in assay [4], in assay [5] (cho-k1) and in assay [6] was “Not Active” each time. For the same compound, the inhibitory constant (Ki) result in assay [2] is on record as “Not Active”.

For the compound `Cc1nnc(NS(=O)(=O)c2ccc(N)cc2)s1` [SULFAMETHIZOLE], the half-inhibitory concentration (IC50) result in assay [1], in assay [2], in assay [3], in assay [4], in assay [5] (cho-k1) and in assay [6] was “Not Active” in each case. In addition, in assay [2], the Ki entry is reported as “Not Active”.

For the compound `CNCCCC12CCC(c3ccccc31)c1ccccc12` [MAPROTILINE], the IC50 result in assay [1] is “Not Active”; in assay [3], “Not Active”; in assay [4], “Not Active”; in assay [5] (read-out: IC50) it was 0.4 µM; in assay [6], “Not Active”. The inhibition constant Ki in assay [5] is 0.393 µM.

Regarding `CN(C)CCC=C1c2ccccc2COc2ccccc21` [DOXEPIN], the IC50 entry in assay [1], in assay [3], in assay [4] and in assay [6] was “Not Active” throughout.

As for `Cc1cc2c(s1)Nc1ccccc1N=C2N1CCN(C)CC1` [OLANZAPINE], the IC50 result in assay [1], in assay [3], in assay [4], in assay [5] (cho-k1) and in assay [6] was “Not Active” each time.
